Test results published in US20250381204A1, “A CANNABINOID MIXTURE WITH TERPENES FOR THE TREATMENT OF ANXIETY” (priority 2022, published 2025).
Where two headings read alike, the source gives them in different places.

Key:
Fish = experiment: Tank diving experiments (Example 8); assay type: in vivo
Description: Fish were exposed to drug, either pure CBD, CBD containing terpenes, or CBD plus CBG, in a litre of water for 30 min prior to being transferred to a novel tank containing fresh fish water in the absence of drug using a net and their behaviour recorded over a 6 min period using a camera mounted to one side. The vertical position of the fish in the tank can reliably be used as a proxy for an individual's anxiety. For example, the less time a fish spends on the bottom of the tank the less anxious. The response variables were number of visits to the top half of the tank, distance from the bottom of the tank, and proportion of time spent in the bottom third of the tank. Time spent on the bottom, distance travelled and number of top half visits determining using Ethovision software (Noldus). Water was changed, tanks and fish nets cleaned between each fish.
The anxiolytic concentration of CBD was first assessed by treating the fish with 0-15 mg/L CBD.
The ratio of CBD minus terpenes:CBD plus terpenes tested was 2:0, 1.5:0.5, 1:1, 0.5:1.5 and 0:2.

larvae = experiment: Forced light/dark transition assay screening hemp extracts, diazepam and caffeine (Example 5); assay type: in vivo, zebrafish; settings: for response when the light is switched on (from trace): whole duration of the assay
Description: Our forced light/dark transition protocol was as follows. First, there was 10 minutes of total darkness (which we refer to as the baseline period; compounds were introduced at the beginning of the baseline period, and 10 minutes were allotted to allow for drug absorption and acclimation). Next, there was a period of five minutes of light exposure followed by five minutes of dark exposure, repeated three times. Finally, there was an additional five minutes of dark exposure.
A variety of statistical techniques were used to address our hypotheses about the potential anxiolytic and anxiogenic effects of four compounds. In outline: • 1) Overall models were carried out using linear mixed-effect models • 2) Deliberate pairwise comparisons between controls and dosages of interest were carried out using appropriate two-sample comparison tests
All statistical analyses were carried out in R version 3.2.2 (R core developer team). Overall models were linear mixed-effects models (LMMs), and were fitted using the Ime4 package (Bates, Machler, Bolker, & Walker, 2015). Data were transformed as indicated to fit the assumptions of LMMs. Posthoc tests were performed using the multcomp package in R. Data distributions were initially assessed visually and model diagnostics were subsequently checked to assure appropriate fits.
Comparisons between patterns of activity during the light phases (i.e. rate of recovery during light phases, which indicates a possible anxiolytic or anxiogenic effect) were performed by analysing the slope of the linear regression function of individual mean distance vs time during light phases.
For pairwise comparisons on specific concentrations, nonparametric tests are used as indicated on non-normally distributed data.

5 dpf zebrafish larvae = assay type: in vivo, Zebrafish (Danio rerio)
Description: Fish were bred and reared in the aquarium facility at Queen Mary University of London, licenced by the UK Home Office. Zebrafish (Danio rerio) adults from the Tuebingen wild type (TUWT) line were kept in glass breeding tanks in fish water that contain sodium bicarbonate (0.9 mM), calcium sulphate (0.05 mM) and marine salts (Sigma, Poole, UK; 0.018 g/l). Fish were maintained on a constant 14 h light: 10 h dark cycle at 28° C. They were fed 2 times a day with Zmsystems® ZM-000 high protein food particle (Tecniplast® UK. London) from 5 dpf-10 dpf, ZM-100 and paramecium from 11 dpf-14 dpf, and, ZM-200 and brineshrimp from 14 dpf-30 dpf. At one month of age, animals were transferred into the aquaria where they were fed Zmsystems® flake food and brineshrimp.
After incubation the 48-well plate was placed in a DanioVision Observation Chamber (Noldus) and the larvae were subjected to a forced dark/light transition assay while still in the compound solution. The assay consisted of a 10 min baseline period in the dark, followed by a 10 min light challenge, followed by a 15 min dark period. DanioVision Observation Chamber controlled the lighting and recorded the assay with an infrared camera (resolution, 30 frames per second (fps)). Footage obtained was processed by EthoVision XT NUMBER (Noldus). Mean distance moved was measured with 10 second intervals.
All statistical analyses were carried out in R version 3.2.2 (R core developer team reference). Data distributions and model fit were initially assessed visually. AIC values were used in model selection. Due to difference in variance between groups we fitted a linear mixed model (LMM) in the gls package (ref).
It was first assessed whether the different compounds and concentrations were associated with differences in locomotion after 30 min exposure. We subsetted the last min in the baseline and fitted an LME with mean distance moved as the response variable, compound as the fixed effect, and individual as the random effect, with a variance structure for compound.
The light challenge and dark phase were subsetted to assess if different compounds and concentrations were associated with different patterns of movement. In the light challenge the increase of movement over time was considered recovery. In the dark phase decrease of movement was considered recovery. We fitted an LME with mean distance moved (in 10 second time bins) as the response variable, the interaction between time and concentration as a fixed effect, individual as the random effect and introduced a variant structure to account for the heterogeneity in variance between drugs.

5 dpf larvae = experiment: Forced light/dark transition test, 10 min dark-(5 min light-5 min dark)*3-5 min dark (Example 4); assay type: in vivo, zebrafish
Description: • All the tests were done with 5 dpf larvae unless stated otherwise. • A forced light/dark transition test was used. (10 min dark-(5 min light-5 min dark)*3-5 min dark) • The dose response curve was made as follows; • The locomotor activity of the larvae at the last min of acclimation (min 9-10 in the assay), was taken • The mean for each larvae over this period of time was calculated • Then the mean of each condition was calculated • The means plotted are relative to the control, control was set at 1

[1] = 2 mg/L CBD in combination with 0-5 mg/L CBG
[2] = 1% ethanol, 80 mg/L caffeine, 250 μg/L fluoxetine, 100 mM NaCl

## CCCCCc1cc(O)c(C/C=C(\C)CCC=C(C)C)c(O)c1 [CBG, Cannabigerol]
Fish; [1]
  anxiolytic / anxiogenic effect of CBG in the mixture: displays no anxiolytic effect, but may potentially have an undesirable anxiogenic effect
  distance from the bottom of the tank: no significant change in the distance from the bottom of the tank with increasing CBG concentration
  frequency of visits to the top half of the tank: decreased with increasing concentration of CBG
  proportion of time spent in the bottom third of the tank: spend a greater proportion of time in the bottom third of the tank

## Cn1c(=O)c2c(ncn2C)n(C)c1=O [caffeine]
larvae; after ~10 minutes of exposure
  dosage with significantly lower locomotion than control larvae (Tukey posthoc): 80 mg/L
larvae; last minute of baseline, dark
  dosage as predictor of mean distance moved after ~10 minutes of exposure (LMM): Dosage was a significant predictor of mean distance moved after 10 minutes of exposure
larvae; light phases
  dosages significantly different from the control during light phases (Tukey posthoc pairwise comparison): ≥ 40 mg/L
  time×dosage and dosage×light phase number as predictors of mean distance moved during light phases (LMM): Both fixed effects were significant predictors of mean distance moved
larvae
  response when the light is switched on (from trace): much the same for all doses
5 dpf zebrafish larvae; [2]
  basal locomotion (last minute of baseline) vs DMSO: move significantly less than DMSO
  freezing in the light challenge vs DMSO: froze less in the beginning of the light challenge
  movement in the beginning of the dark period / in the dark phase vs DMSO: move less overall in the dark phase
  rate of recovery in the dark phase (decrease of movement over time) vs DMSO: recover less over time
  rate of recovery in the light challenge (increase of movement over time) vs DMSO: negative impact of locomotion over time

## CCO [ethanol]
5 dpf larvae; 0.25% ethanol
  behaviour in the acclimation period: start moving erratically
5 dpf larvae; 0.5% ethanol, most groups freeze
  behaviour when turning on the light: starts moving more than before
5 dpf zebrafish larvae; [2]
  rate of recovery in the dark phase (decrease of movement over time) vs DMSO: recovers faster
  rate of recovery in the light challenge (increase of movement over time) vs DMSO: negative impact of locomotion over time
5 dpf zebrafish larvae; zebrafish, in vivo
  basal locomotion (last minute of baseline) vs DMSO: moved significantly more than DMSO
  freezing in the light challenge vs DMSO: froze less in the beginning of the light challenge
  movement in the beginning of the dark period / in the dark phase vs DMSO: moves more at the beginning of the dark period compared to DMSO

## CN1C(=O)CN=C(c2ccccc2)c2cc(Cl)ccc21 [diazepam]
larvae; 0.25 μM
  rate of recovery (slope) during light phases vs DMSO control: significantly higher slope, or rate of recovery
larvae; Experiment 1 (diazepam), all dosages
  rate of recovery (slope of linear regression) during the first light phase (Kruskal-Wallis): faster rate of recovery
larvae; Experiment 2 (diazepam), 2.5 μM, minute 10 to 20
  mean distance moved over time in the light challenge vs control: increases movement over time faster than the control in the light challenge
larvae; Experiment 2 (diazepam), 2.5 μM, minute 20 to 30
  mean distance moved over time in the dark period vs control: decreases movement over time faster than the control in the dark period
larvae; Experiment 2 (diazepam), minute 9 to 10
  mean distance moved in the baseline period (LMM): no significant difference found in mean distance moved in the baseline period
larvae; after ~10 minutes of exposure, Experiment 1 (diazepam)
  dosages with significantly lower distance moved than the control fish (Tukey post hoc): ≥ 0.25 µM
larvae; light phases
  time×dosage and dosage×light phase number as predictors of mean distance moved during light phases (LMM): Both fixed effects were significant predictors of mean distance moved
larvae
  response when the light is switched on (from trace): stops the fish moving to the bottom of the tank
larvae; zebrafish, in vivo
  anxiolytic effect (overall conclusion): anxiolytic effect
5 dpf larvae; 5 dpf larvae, dose response
  effect on locomotor: impairment diazepam has on locomotor

## [Cl-].[Na+] [NaCl]
5 dpf zebrafish larvae; zebrafish, in vivo
  basal locomotion (last minute of baseline) vs DMSO: no difference in locomotion
  freezing in the light challenge vs DMSO: froze less
  movement in the beginning of the dark period / in the dark phase vs DMSO: no difference in movement in the beginning of the dark period
  rate of recovery in the dark phase (decrease of movement over time) vs DMSO: recovers slower than DMSO
  rate of recovery in the light challenge (increase of movement over time) vs DMSO: did not recover differently from DMSO

## CNCCC(Oc1ccc(C(F)(F)F)cc1)c1ccccc1 (centres unmarked) [Fluoxetine, fluoxetine]
5 dpf zebrafish larvae; [2]
  basal locomotion (last minute of baseline) vs DMSO: move significantly less than DMSO
  movement in the beginning of the dark period / in the dark phase vs DMSO: move less overall in the dark phase
  rate of recovery in the dark phase (decrease of movement over time) vs DMSO: recover less over time
  rate of recovery in the light challenge (increase of movement over time) vs DMSO: recover less over time

## C=C(C)[C@@H]1CCC(C)=C[C@H]1c1c(O)cc(CCCCC)cc1O [CBD, Cannabidiol]
Fish; 0-15 mg/L CBD, 30 min exposure, 6 min recording
  anxiolytic effect in tank diving (top half visits, distance from bottom, time in bottom third): anxiolytic effect
